Among the data in PubChem BioAssay AID449764 (Southern Research Specialized Biocontainment Screening …, 2010) are IC50 and IC90 values, retold here.

pIC50: −log10 of the molar value.

The assay concerns Mycobacterium tuberculosis H37Rv growth inhibition, no glycerol. The experiment in a line: Confirmatory growth inhibition assay, Mycobacterium tuberculosis H37Rv, absence of glycerol (AID 449764).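 As to all read-outs here: growth read after 7 days of incubation.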 The note with it: for IC90: measured here: IC90 growth inhibition.

Consider `CCOc1ccc(-c2cc(C(=O)NCCCn3ccnc3)c3cc(Br)ccc3n2)cc1`, for which the pIC50 is 4.60 and the IC90 turned out to be 27.6 µM.

As to `CC(=O)c1cccc(NC(=S)NC2CCCCCCC2)c1`, the pIC50 is 4.56 and the IC90 is above 100 µM. The like results for `S=C1SCN(Cc2ccco2)CN1Cc1ccco1` were, in that order, 4.37 and 54.2 µM. The like results for `O=C(c1cnn2c(C(F)F)cc(-c3ccccc3)nc12)N1CCc2ccccc2C1` were, in that order, 4.45 and 48.6 µM. As to `CCCCn1c(O)c(/C=C2/C=CC=N2)c(=O)[nH]c1=O`, the negative logarithm of the IC50 (pIC50) is 4.92 and the concentration for an effect of 90% (IC90) amounted to 23.6 µM.

As for `N#Cc1nccnc1S(=O)(=O)c1cccs1`, the pIC50 is 4.23 and the concentration for an effect of 90% (IC90) amounted to 73.3 µM. The like results for `Nc1cc([N+](=O)[O-])ccc1Nc1ccc(O)cc1` were, in that order, 4.51 and 36.6 µM. The like results for `COC(=O)c1c(NC(=S)NN2CCN(C)CC2)sc2c1CCC(C)C2` (stereo unspecified) were, in that order, 4.64 and 26.6 µM. With `O=C1N=C(N2CCC(Cc3ccccc3)CC2)S/C1=C/c1cn[nH]c1-c1ccccc1`, the negative-log IC50 (pIC50) is 4.10 and the IC90 is above 100 µM.

As to `Cc1[nH][nH]c(=O)c1C(c1ccc(-c2ccc(Cl)c(Cl)c2)o1)c1c(C)[nH][nH]c1=O`, the pIC50 is 4.09 and the IC90 is above 100 µM. The like results for `Cc1ccc(NC(=O)c2cnc(SCC(=O)NCC3CCCO3)n(C)c2=O)cc1C` (stereo unspecified) were, in that order, 4.49 and above 100 µM.

As to `CC(=O)Nc1ccc(N2C(C(C)=O)=NN(c3ccc(Cl)cc3)C2c2sccc2C)cc1` (stereo unspecified), the negative-log IC50 (pIC50) is 4.18 and the concentration for an effect of 90% (IC90) was 83.9 µM.

On to `CCCOc1cccc(-c2nn(-c3ccccc3)cc2/C=C(\C#N)C(=O)NCCCn2ccnc2)c1`, for which the pIC50 was 4.20 and the 90% effect concentration (IC90) came to 78.3 µM.

Consider `COc1cc(NC(C)CCCN)c2ncccc2c1` (stereo unspecified), for which the pIC50 is 5.04 and the IC90 was determined as 14.3 µM. The like results for `CCN(CC)CCN(C(=O)c1ccc(S(=O)(=O)N2CCCC2)cc1)c1nc2cc(C)cc(C)c2s1` were, in that order, 4.93 and 13.5 µM. Taken in the same sequence, the figures for `Cc1ccc(C(=O)c2oc3ccc(Cl)cc3c2NC(=O)CN2CCN(C)CC2)cc1` were 4.83 and 19.6 µM.

On to `CSc1cccc(NC(=O)CCS(=O)(=O)c2cccc3nonc23)c1`, for which the negative logarithm of the IC50 (pIC50) is 5.25 and the IC90 is 9.26 µM. The like results for `COc1ccc(CN(CCC(c2ccccc2)c2ccc(OC(C)C)cc2)C(=O)CCl)cc1OC` (stereo unspecified) were, in that order, 4.80 and 23.5 µM. Take `O=C(CCS(=O)(=O)c1ccc(F)cc1)Nc1nc(-c2ccccn2)cs1`: the pIC50 is 4.89 and the IC90 is 29.1 µM. Taken in the same sequence, the figures for `O=C(CSc1ccccn1)Nc1nonc1[N+](=O)[O-]` were 5.24 and 6.24 µM. Taken in the same sequence, the figures for `Cc1ccccc1Cn1ccc(=NCc2ccccc2)cc1` were 4.99 and 14 µM. The like results for `CN(C)[C@@H]1C(=O)C(C(N)=O)=C(O)[C@@]2(O)C(=O)C3=C(O)c4c(O)cccc4[C@@](C)(O)C3C[C@@H]12` (stereo partly specified) were, in that order, 5.01 and 27.4 µM. On to `CC(C)CS(=O)(=O)C1=NN2C(=N)/C(=C\c3ccc(OC(=O)c4ccco4)cc3)C(=O)N=C2S1`, for which the pIC50 is 4.68 and the concentration for an effect of 90% (IC90) came out at 26.5 µM. The like results for `CCCCCCN=C1CC(C)(C)CC(=O)/C1=C(/O)CCC` were, in that order, 4.15 and above 100 µM. Taken in the same sequence, the figures for `c1ccc2c(c1)ncn2CCCCOc1ccc2c(c1)CCC2` were 4.62 and 27.4 µM. Consider `O=C(OCC(=O)N1CCN(C(=O)c2ccco2)CC1)c1cc(-c2cccc(Br)c2)nc2ccccc12`, for which the 90% effect concentration (IC90) is above 100 µM.

Regarding `Cc1ncsc1CCOC(=O)c1ccc([N+](=O)[O-])cc1`, the pIC50 was 4.70 and the IC90 came out at 37.2 µM. The like results for `Cc1cccc(C)c1Nc1c(-c2ccccn2)nc2ccccn12` were, in that order, 5.23 and 8.59 µM. Taken in the same sequence, the figures for `Cc1ccc(Nc2nc(N)nc(CN3CCc4ccccc4C3)n2)cc1` were 5.25 and 18.6 µM.

On to `CCOc1ccc(N2CC(=O)Nc3ccccc3NCC2=O)cc1`, for which the negative-log IC50 (pIC50) was 4.25 and the 90% effect concentration (IC90) came to 83.1 µM. The like results for `CCOc1ccc2nc(N/C(N)=N/C(=S)Nc3cccc(C)c3)nc(C)c2c1` were, in that order, 4.44 and above 100 µM. Taken in the same sequence, the figures for `Cc1ccc(-c2nc3c(c(=O)c4ccccc4n3C)c(=O)n2Cc2ccco2)cc1` were 4.60 and 40.2 µM. Taken in the same sequence, the figures for `Cc1cccc(/C=C/c2onc(C)c2[N+](=O)[O-])n1` were 4.70 and 26.8 µM. As for `Cc1ccccc1Nc1nc(N)nc(COC(=O)c2ccc([N+](=O)[O-])o2)n1`, the pIC50 was 4.05 and the IC90 is above 100 µM. For the molecule `Cc1ccc(C(c2nnnn2Cc2cccs2)N2CCN(Cc3ccc4c(c3)OCO4)CC2)cc1` (stereo unspecified), the pIC50 was 4.61 and the IC90 was 38 µM. In turn, `Cc1ccc(NC(=O)c2sccc2-n2cccc2)c(C)c1` registered an IC90 above 100 µM. On to `OCC1(Cc2cccc(Cl)c2)CCCN(Cc2ccc3cc(F)ccc3n2)C1` (stereo unspecified), for which the pIC50 was 4.42 and the IC90 amounted to 54.6 µM. Taken in the same sequence, the figures for `CCOC(=O)CNc1ccc(C(=O)OCC)cc1[N+](=O)[O-]` were 4.74 and above 100 µM.

For `Cc1cc(N2CCC(C)CC2)nc(-n2nc(C)cc2C)n1`, the pIC50 is 6.01 and the 90% effect concentration (IC90) is 2.97 µM. Taken in the same sequence, the figures for `O=C(OCC(=O)N1CCCCC1)c1cc2ccccc2cc1O` were 5.53 and 3.42 µM.

With `CCCCCCOC(=O)C(C#N)c1nc2ccccc2nc1N1CCN(CC)CC1` (stereo unspecified), the pIC50 is 4.67 and the IC90 is 32.3 µM. Taken in the same sequence, the figures for `CCc1ccc2nc(N3C(=O)C(O)=C(C(=O)c4ccco4)C3c3cccs3)sc2c1` (stereo unspecified) were 4.06 and 95.2 µM. Taken in the same sequence, the figures for `Cc1cc(C(=O)CCl)c(C)n1-c1cccc([N+](=O)[O-])c1` were 5.62 and 6.49 µM.

Regarding `Cc1nn(-c2ccccc2)c(N)c1N=Nc1ccc(Cl)cc1`, the pIC50 is 4.28 and the IC90 was above 100 µM. Taken in the same sequence, the figures for `C[N+](C)(CCCCCC[N+](C)(C)CCCN1C(=O)c2cccc3cccc(c23)C1=O)CCCN1C(=O)c2cccc3cccc(c23)C1=O` were 5.44 and 5.15 µM.

For `CCOC(=O)c1ccc(-n2c(CCC(=O)O)ccc2-c2cccs2)cc1`, the pIC50 is 4.68 and the concentration for an effect of 90% (IC90) was 23.6 µM.

Consider `Cc1cc(C)n(-c2ccc(C(=O)Oc3ccc4c(c3)OCO4)cc2)n1`, for which the pIC50 was 4.93 and the IC90 was above 100 µM. Taken in the same sequence, the figures for `CC1(C)Cc2c(cnn2-c2ccccc2)-c2c1c1ccccc1n2CC(O)CCl` (stereo unspecified) were 4.02 and above 100 µM. The like results for `COc1ccc(-c2nnc(NC(=O)c3ccc([N+](=O)[O-])o3)o2)c(OC)c1` were, in that order, 5.21 and 14 µM. The like results for `C/C(=N\NC(N)=S)C1C2C3CC4C5CC(C42)C1C53` (stereo unspecified) were, in that order, 4.65 and 31.8 µM. With `CCCCN(C)S(=O)(=O)c1ccc(C(=O)Nc2nnc(-c3ccco3)o2)cc1`, the negative logarithm of the IC50 (pIC50) was 4.75 and the IC90 is 32.7 µM. Taken in the same sequence, the figures for `O=[N+]([O-])c1cc(-c2nc(-c3ccncc3)no2)cc([N+](=O)[O-])c1` were 4.98 and 20.5 µM. Taken in the same sequence, the figures for `Cc1cc(C2N=C(N)Nc3nc4ccccc4n32)c(C)n1-c1ccccc1Cl` (stereo unspecified) were 4.76 and 21.4 µM. For the molecule `COc1ccc(Cc2nc3ccc(C(=O)NCCCSC)cc3o2)cc1OC`, the pIC50 is 4.37 and the concentration for an effect of 90% (IC90) was determined as 65.2 µM.

For the molecule `Cc1ccc(C(=O)O/N=C\c2ccc(N3CCCCC3)c([N+](=O)[O-])c2)cc1`, the pIC50 is 4.27 and the IC90 was above 100 µM. The like results for `Cc1ccc(S(=O)(=O)N2CCC(C(=O)OCc3ccccc3)CC2)cc1C` were, in that order, 4.33 and 52.2 µM. Taken in the same sequence, the figures for `CCN1C(=NCCc2ccc(Br)cc2)N[C@@H](c2ccccc2)[C@H](C(=O)OC)[C@H]1C` were 4.65 and 25.8 µM.

For the molecule `Cc1cc(C(=O)CCl)c(C)n1CCc1ccc(Cl)cc1`, the pIC50 was 5.40 and the IC90 turned out to be 9.41 µM. As for `CC(=O)n1cc(/C=C2/N=C(c3ccccc3)OC2=O)c2ccccc21`, the negative logarithm of the IC50 (pIC50) is 4.36 and the IC90 is above 100 µM. For `COc1ccc(C2c3[nH]c4ccccc4c3CCN2C(=O)c2cc3ncccn3n2)c(F)c1` (stereo unspecified), the 90% effect concentration (IC90) was above 100 µM. On to `CCOC(=O)c1sc2nc(C)nc(SC(C)C(=O)N(C)c3ccccc3)c2c1C` (stereo unspecified), for which the pIC50 is 4.46 and the IC90 turned out to be 44.6 µM. Taken in the same sequence, the figures for `COC(=O)CSc1nnc(-c2sc3cc(OC)ccc3c2Cl)n1C` were 4.45 and above 50 µM. The like results for `Cc1ccc(CN2C3CCCC2CC(NC(=S)NCc2ccccc2)C3)cc1` (stereo unspecified) were, in that order, 4.39 and 75.6 µM. Taken in the same sequence, the figures for `COc1ccc(OCCCC(=O)OC(C)C(=O)Nc2ccccc2[N+](=O)[O-])cc1` (stereo unspecified) were 4.35 and above 100 µM. Take `COCc1cc(=O)[nH]c(Nc2nc3ccccc3o2)n1`: the negative-log IC50 (pIC50) was 4.58 and the 90% effect concentration (IC90) was determined as 48 µM. Taken in the same sequence, the figures for `Brc1ccc2c(c1)C(OC1CN3CCC1CC3)c1ccccc1CS2` (stereo unspecified) were 4.58 and 36.4 µM. The like results for `CC(OC(=O)c1cnc2ccccc2n1)c1ccccc1Cl` (stereo unspecified) were, in that order, 4.66 and 34 µM. Taken in the same sequence, the figures for `CNc1nc(SCc2ccccc2Cl)nc2c1CCCC2` were 6.35 and 1.21 µM. For `Cc1ccc(C)c(-c2nnc(NC(=O)C3=COCCO3)o2)c1`, the pIC50 was 4.86 and the IC90 amounted to 30.2 µM. As to `COc1ccc(-c2nnc(SCC(=O)N3CCc4ccccc4C3)o2)cc1`, the pIC50 was 4.51 and the concentration for an effect of 90% (IC90) is 45.3 µM.

For `O=C(NC(=S)Nc1cccc2cccnc12)c1ccccc1`, the negative logarithm of the IC50 (pIC50) was 4.24 and the IC90 was above 100 µM. Taken in the same sequence, the figures for `Cc1cc(C(=O)N[C@H](c2ccccc2)[C@@]2(C)C[C@@H]2[C@@H](C)C(=O)Nc2ccc3ccccc3c2)n(C)n1` were 4.41 and 53.9 µM.

As a reminder, the pIC50 is −log10 of the IC50, conventionally taken in molar units. For orientation: IC90 means the point of the concentration-response curve where the effect stands at 90%. High values mean a need for much substance, low ones an effect from little substance.
